Source: patent US20020061840A1, “Tripeptide compounds useful as selective inhibitors of aminopeptidase A and corresponding pharmaceutical compositions” (priority 2000, published 2002)

Target: T1, Aminopeptidase N (Sus scrofa, UniProt P15145)
T1 construct: Aminopeptidase N purified from pig's kidney; purchased Böehringer Mannheim (Meylan, France); host or cells: pig's kidney
T1 sequence (P15145 1-963): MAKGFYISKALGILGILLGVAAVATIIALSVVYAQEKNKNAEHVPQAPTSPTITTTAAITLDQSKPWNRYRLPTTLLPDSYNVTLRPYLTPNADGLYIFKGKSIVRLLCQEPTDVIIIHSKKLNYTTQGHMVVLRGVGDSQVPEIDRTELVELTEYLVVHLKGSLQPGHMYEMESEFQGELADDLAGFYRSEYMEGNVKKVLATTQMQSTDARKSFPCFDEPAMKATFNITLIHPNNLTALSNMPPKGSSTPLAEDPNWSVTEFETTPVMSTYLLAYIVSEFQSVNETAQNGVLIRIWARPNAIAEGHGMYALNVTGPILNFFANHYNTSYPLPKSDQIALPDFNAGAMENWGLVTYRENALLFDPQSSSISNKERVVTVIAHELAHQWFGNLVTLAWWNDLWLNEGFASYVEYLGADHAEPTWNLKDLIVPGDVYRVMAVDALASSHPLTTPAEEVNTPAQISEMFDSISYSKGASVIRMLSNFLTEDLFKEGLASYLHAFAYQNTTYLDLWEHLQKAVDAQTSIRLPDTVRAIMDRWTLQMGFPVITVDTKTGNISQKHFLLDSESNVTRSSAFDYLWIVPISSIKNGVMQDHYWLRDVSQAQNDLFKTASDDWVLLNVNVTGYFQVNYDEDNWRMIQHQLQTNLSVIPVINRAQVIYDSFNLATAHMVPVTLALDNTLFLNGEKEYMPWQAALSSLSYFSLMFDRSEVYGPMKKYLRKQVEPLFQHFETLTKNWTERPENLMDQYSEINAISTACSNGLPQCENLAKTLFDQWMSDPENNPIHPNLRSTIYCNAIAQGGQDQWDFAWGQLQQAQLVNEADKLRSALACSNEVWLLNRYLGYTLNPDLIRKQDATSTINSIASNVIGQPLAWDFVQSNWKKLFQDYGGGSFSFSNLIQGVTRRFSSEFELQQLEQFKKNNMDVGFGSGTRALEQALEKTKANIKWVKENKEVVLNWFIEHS
Experiment: In vitro inhibiting power on aminopeptidase N (Ala-Na substrate)
Assay type: biochemical
Details: APN purified from pig's kidney, 200 μM Ala-Na, 37° C., Tris HCl pH 7.4
Description: b)) In vitro study of the inhibiting power of the synthesised compounds on aminopeptidase N.
1°) Source of the Enzyme.
Aminopeptidase N purified from pig's kidney is marketed by Böehringer Mannheim (Meylan, France).
The APN is incubated for 10 min at 37° C. in the absence or in the presence of increasing concentrations of inhibitors in a total volume of 100 μl in Tris HCl buffer (50 mM, pH =7.4. 200 μM of Ala-Na are added and the whole thing is incubated for 30 min at 37° C. The reaction is stopped by the addition of 10 μl of CH3COO—Na 1M (pH=4.2). The absorption is measured at 400 nm and compared with that of a standard range of 2-naphthyiamine.

| Structure (SMILES) | Ki [µM] |
| --- | --- |
| CC[C@H](C)[C@H](NC(=O)[C@@H](S)[C@H](N)CCC(=O)O)C(=O)N1CC[C@@H](C(=O)O)[C@H]1C(=O)O [Example 3A, [[(2S ,3R)-3-amino-5-carboxy-2-mercapto]pentanoyl]-LIIe-L.(3R)(3-COOH)Pro-OH] | > 5 |
| CCC(C)C(NC(=O)C(S)C(N)CCS(=O)(=O)O)C(=O)NC(CCC(=O)O)C(N)=O (single isomer, unassigned) [Example 8A] | > 50 |
| CC[C@H](C)[C@H](NC(=O)[C@H](S)[C@H](N)CCC(=O)O)C(=O)N1CC[C@@H](C(=O)O)[C@H]1C(=O)O [Example 3B, [[(2R,3R), 3-amino-5-carboxy-2-mercapto]-pentanoyl]-L.IIe-L.(3R)(3-COOH)Pro-OH] | > 5 |
| CCC(C)C(NC(=O)C(S)C(N)CCS(=O)(=O)O)C(=O)NC(CCC(=O)O)C(N)=O (single isomer, unassigned) [Example 8B] | > 50 |
| CCC(C)C(NC(=O)C(S)C(N)CCP(=O)(O)O)C(=O)NC(CCC(=O)O)C(=O)O (single isomer, unassigned) [Example 4A] | > 5 |
| CCC(C)C(NC(=O)C(S)C(N)CCP(=O)(O)O)C(=O)NC(CCC(=O)O)C(=O)O (single isomer, unassigned) [Example 4B] | > 5 |
